Data published in patent US4032654A, “Water-soluble, liquid concentrates of S-methyl-[(methyl-carbamoyl)oxy]-thioacetimidate and methyl N', N'-dimethyl-N-[(methyl-carbamoyl)oxy]-1-thiooxamimidate” (priority 1975, dated 1977).
Converted amounts (≈) assume the structure as drawn. “And” between values parts separate entries of the source, which are not always exact repeats. Equal values may be shown once. Read-outs that look alike come from different tables or passages of the source.

How the values were obtained:
physchem [1] = conditions: for solubility: Oxamyl alone in solvent
Protocol: Solubility of Methomyl and Oxamyl (2:1 wt. ratio) in CH3 OH/H2 O at -6° C.
(§1) Methomyl and oxamyl were added to various methanol:water solvent systems ranging from 100 wt. % CH3 OH to 30 wt. % CH3 OH:70 wt. % H2 O. The methomyl and oxamyl were dissolved in a 2:1 weight ratio of 50 wt. % methomyl to 25 wt. % oxamyl in the solvent systems. The samples were equilibrated at -6° C. in a constant temperature freezer after which they were seeded with methomyl and oxamyl crystals to ensure crystallization of both materials. After crystal-liquid equilibrium was assured, liquid was removed at -6° C. and assayed for methomyl and oxamyl. Solids were also removed at -6° C., washed with hexane and dried. The solids were then dissolved in methanol to yield a 10 wt. % solution. This solution was evaluated by thin layer chromatography (TLC) to ensure the solids consisted of both methomyl and oxamyl.

physchem [2] = conditions: for solubility: Oxamyl alone in solvent; remark: listed apart in the source
Protocol: as §1, with “The methomyl and oxamyl were dissolved in a 2:1 weight ratio of 50 wt. % methomyl to 25 wt. % oxamyl in the solvent systems.” left out
Solubility of Methomyl and Oxamyl 1:2.5 wt. ratio in CH3 OH:H2 O at -6° C.
Example 3 was repeated by dissolving methomyl and oxamyl in a 1:2.5 weight ratio in the same solvent systems under the same conditions.

[3] = Protocol: Methomyl and/or oxamyl were added to a solvent system consisting of 60% cyclohexanone, 10% methanol and 30% water at room temperature at a concentration higher than the solubility limit at -6° C. The methomyl and oxamyl were added together, at weight ratios of 2:1, 1:1 and 1:2.5. The solutions were cooled to -6° C. and seeded with methomyl and/or oxamyl to initiate crystallization. The solutions remained at -6° C. until equilibrium was assured. The supernatant liquid in each sample was analyzed for methomyl and oxamyl by liquid chromatography.
physchem [4] = conditions: for solubility: Oxamyl alone in solvent; remark: listed apart in the source
Protocol: Methomyl and oxamyl were added to various methanol:water solvent systems ranging from 100% CH3 OH to 40% CH3 OH:60% H2 O. The methomyl and oxamyl were dissolved separately or combined on a 1:1 weight ratio in the solvent systems at room temperature at a concentration exceeding the solubility limit at -6° C. Each sample was seeded with methomyl and/or oxamyl at -6° C. and allowed to crystallize until equilibrium was established. The supernatant liquid of each sample was assayed for methomyl and/or oxamyl by liquid chromatography.

[5] = remark: listed apart in the source
Protocol: Solubility of Methomyl and Oxamyl 80:20 Wt. Ratio Acetone:H2 O
Methomyl and oxamyl were dissolved in a solvent system consisting of 80 wt. % acetone and 20 wt. % water separately and in 1:1, 2:1 and 1:2.5 wt. ratios of methomyl and oxamyl. These solutions were equilibrated at -6° C. and were seeded with methomyl and/or oxamyl. They remained at -6° C. until solid-liquid equilibrium was assured. Liquid was removed from each sample at -6° C. and assayed for methomyl and oxamyl. Solids were also removed at -6° C., washed, dried and dissolved in methanol to yield a 10 wt. % solution which was evaluated by TLC for oxamyl and methomyl.

[6] = remark: listed apart in the source
Protocol: Methomyl and Oxamyl Solubility In Cyclohexanone, Cyclohexanol, CH3 OH and H2 O at -6° C.
Methomyl and oxamyl were dissolved separately and in weight ratios of 1:1, 2:1 and 1:2.5 methomyl to oxamyl in a solvent system consisting of 30 wt. % cyclohexanone, 30 wt. % cyclohexanol, 30 wt. % water and 10 wt. % methanol. These solutions were equilibrated at -6° C. and seeded with methomyl and/or oxamyl crystals. The samples of liquid and solids remained at -6° C. until solid-liquid equilibrium was assured. A liquid sample was removed from each at -6° C. and assayed for methomyl and/or oxamyl. Solids were also isolated at -6° C., washed, dried and dissolved in CH3 OH to yield a 10% solution which was analyzed by TLC to ensure both methomyl and oxamyl crystals were present in the solids of the combination sample. All such solids contained both oxamyl and methomyl.
SOLUBILITY OF METHOMYL AND OXAMYL (2:1, 1:1 and 1:2.5 Wt.
RATIOS) IN CYCLOHEXANONE, CYCLOHEXANOL, CH3 OH AND H2 O

With CNC(=O)ON=C(SC)C(=O)N(C)C [Oxamyl, methyl N',N'-dimethyl-N-[(methylcarbamoyl)oxy]-1-thiooxamimidate] the “Solubility, both actives in solvent: Oxamyl” value (“Solubility, both actives” for short) (physchem [1]) was 113 gms/100 gms, the solubility (physchem [1]; 40/60 ch3oh/h2o, alone, -6° C.) was 209 mg/mL (≈ 953 mM) and the solubility (physchem [1]; 50/50 ch3oh/h2o, alone, -6° C.) was 290 mg/mL (≈ 1320 mM). For the same compound, the solubility (physchem [1]; 60/40 ch3oh/h2o, alone, -6° C.) was 397 mg/mL (≈ 1810 mM), the solubility (physchem [1]; 70/30 ch3oh/h2o, alone, -6° C.) was 422 mg/mL (≈ 1920 mM) and the solubility (physchem [1]; 80/20 ch3oh/h2o, alone, -6° C.) was 447 mg/mL (≈ 2040 mM). For the same compound, the solubility (physchem [1]; 90/10 ch3oh/h2o, alone, -6° C.) was 406 mg/mL (≈ 1850 mM), the “Solubility, Oxamyl alone in solvent” value (physchem [1]; alone, 100/0 CH3OH/H2O, -6° C.) was 33.3 gms/100 gms and the “Solubility change when dissolved in combination” value (physchem [1]; methanol:water solvent systems, 2:1 wt. ratio dissolved initially, -6° C.) was “increased”. For the same compound, the “Solubility, both actives” value (physchem [2]) was 72.3 gms/100 gms, the solubility (physchem [2]; 40/60 ch3oh/h2o, alone, -6° C.) was 209 mg/mL (≈ 953 mM) and the solubility (physchem [2]; 50/50 ch3oh/h2o, alone, -6° C.) was 291 mg/mL (≈ 1330 mM). It also gave a solubility (physchem [2]; 60/40 ch3oh/h2o, alone, -6° C.) of 396 mg/mL (≈ 1810 mM), a solubility (physchem [2]; 70/30 ch3oh/h2o, alone, -6° C.) of 423 mg/mL (≈ 1930 mM) and a solubility (physchem [2]; 80/20 ch3oh/h2o, alone, -6° C.) of 448 mg/mL (≈ 2040 mM). For the same compound, the solubility (physchem [2]; 90/10 ch3oh/h2o, alone, -6° C.) was 404 mg/mL (≈ 1840 mM), the “Solubility, Oxamyl alone in solvent” value (physchem [2]; alone, 100/0 CH3OH/H2O, -6° C.) was 33.3 gms/100 gms and the “Solubility, both actives” value [3] was 84.8 gms/100 gms solvent and 80.1 gms/100 gms solvent and 82.7 gms/100 gms solvent. The “Solubility, Oxamyl alone in solvent” value ([3]; alone, 60% cyclohexanone, 10% methanol, 30% water, -6° C.) was 48.4 gms/100 gms solvent, the “Solubility, both actives” value (physchem [4]) was 80 gms/100 gms and the solubility (physchem [4]; 40/60 ch3oh/h2o, alone, -6° C.) was 209 mg/mL (≈ 953 mM). The solubility (physchem [4]; 50/50 ch3oh/h2o, alone, -6° C.) was 290 mg/mL (≈ 1320 mM), the solubility (physchem [4]; 60/40 ch3oh/h2o, alone, -6° C.) was 397 mg/mL (≈ 1810 mM) and the solubility (physchem [4]; 70/30 ch3oh/h2o, alone, -6° C.) was 422 mg/mL (≈ 1920 mM). For the same compound, the solubility (physchem [4]; 80/20 ch3oh/h2o, alone, -6° C.) was 447 mg/mL (≈ 2040 mM), the solubility (physchem [4]; 90/10 ch3oh/h2o, alone, -6° C.) was 406 mg/mL (≈ 1850 mM) and the “Solubility, Oxamyl alone in solvent” value (physchem [4]; alone, 100/0 CH3OH/H2O, -6° C.) was 33.3 gms/100 gms. The “Solubility when dissolved together in the solvents taught” value (physchem [4]; summary of Examples 2-7) was “increases in solubility occur”, the “Solubility, both actives” value [5] was 84.6 gms/100 gms solvent and 79.3 gms/100 gms solvent and 82.8 gms/100 gms solvent and the “Solubility, Oxamyl alone in solvent” value ([5]; alone, 80:20 wt acetone/H2O, -6° C.) was 52.0 gms/100 gms solvent. The “Solubility, both actives” value [6] was 83.0 gms/100 gms solvent and 63.7 gms/100 gms solvent and 61.8 gms/100 gms solvent and the “Solubility, Oxamyl alone in solvent” value ([6]; alone, 30% cyclohexanone, 30% cyclohexanol, 30% water, 10% methanol, -6° C.) was 41.5 gms/100 gms solvent.
